Results reported in paper PMC4450297, “Screening Active Compounds from Garcinia Species Native to China Reveals Novel Compounds Targeting the STAT/JAK Signaling Pathway” (BioMed Research International, 2015).

System: A498
Test: Cell panel screen (CellTiter-Glo)
Assay type: cell-based, human
Details: A498 (listed under Lung), 20 micromolar, 72 hrs
Procedure, shortened: (§1)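 ATCC lines in supplier media with 10% FBS, seeded and cultured overnight at 37° C., then exposed to compound at 20 μM final for 72 h. CellTiter-Glo luminescence; % growth inhibition relative to DMSO-treated controls after subtracting cell-free background.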

| Compound | Percent Inhibition [%] |
| --- | --- |
| COc1ccc2c(=O)c3c(O)cc(O)cc3oc2c1OC [Go-14] | -2 |

System: J82
Test: Cell panel screen (CellTiter-Glo)
Assay type: cell-based, human
Details: J82 (Urinary bladder), 20 micromolar, 72 hrs
Procedure, shortened: as §1

| Compound | Percent Inhibition [%] |
| --- | --- |
| COc1ccc2c(=O)c3c(O)cc(O)cc3oc2c1OC [Go-14] | -8 |

System: HPAF-II
Test: Cell panel screen (CellTiter-Glo)
Assay type: cell-based, human
Details: HPAF-II (Pancreas), 20 micromolar, 72 hrs
Procedure, shortened: as §1

| Compound | Percent Inhibition [%] |
| --- | --- |
| COc1ccc2c(=O)c3c(O)cc(O)cc3oc2c1OC [Go-14] | 0 |

System: NCI-H2405
Test: Cell panel screen (CellTiter-Glo)
Assay type: cell-based, human
Details: NCI-H2405 (Lung), 20 micromolar, 72 hrs
Procedure, shortened: as §1

| Compound | Percent Inhibition [%] |
| --- | --- |
| COc1ccc2c(=O)c3c(O)cc(O)cc3oc2c1OC [Go-14] | -10 |

System: NCI-H1623
Test: Cell panel screen (CellTiter-Glo)
Assay type: cell-based, human
Details: NCI-H1623 (Lung), 20 micromolar, 72 hrs
Procedure, shortened: as §1

| Compound | Percent Inhibition [%] |
| --- | --- |
| COc1ccc2c(=O)c3c(O)cc(O)cc3oc2c1OC [Go-14] | -10 |

System: A704
Test: Cell panel screen (CellTiter-Glo)
Assay type: cell-based, human
Details: A704 (Kidney), 20 micromolar, 72 hrs
Procedure, shortened: as §1

| Compound | Percent Inhibition [%] |
| --- | --- |
| COc1ccc2c(=O)c3c(O)cc(O)cc3oc2c1OC [Go-14] | -13 |

System: HCC1395
Test: Cell panel screen (CellTiter-Glo)
Assay type: cell-based, human
Details: HCC1395 (Breast), 20 micromolar, 72 hrs
Procedure, shortened: as §1

| Compound | Percent Inhibition [%] |
| --- | --- |
| COc1ccc2c(=O)c3c(O)cc(O)cc3oc2c1OC [Go-14] | -8 |

System: C3A
Test: Cell panel screen (CellTiter-Glo)
Assay type: cell-based, human
Details: C3A (Liver), 20 micromolar, 72 hrs
Procedure, shortened: as §1

| Compound | Percent Inhibition [%] |
| --- | --- |
| COc1ccc2c(=O)c3c(O)cc(O)cc3oc2c1OC [Go-14] | -7 |

System: M059J
Test: Cell panel screen (CellTiter-Glo)
Assay type: cell-based, human
Details: M059J (Brain), 20 micromolar, 72 hrs
Procedure, shortened: as §1

| Compound | Percent Inhibition [%] |
| --- | --- |
| COc1ccc2c(=O)c3c(O)cc(O)cc3oc2c1OC [Go-14] | 0 |

System: NCI-H2347
Test: Cell panel screen (CellTiter-Glo)
Assay type: cell-based, human
Details: NCI-H2347 (Lung), 20 micromolar, 72 hrs
Procedure, shortened: as §1

| Compound | Percent Inhibition [%] |
| --- | --- |
| COc1ccc2c(=O)c3c(O)cc(O)cc3oc2c1OC [Go-14] | -2 |

System: CW-2
Test: Cell panel screen (CellTiter-Glo)
Assay type: cell-based, human
Details: CW-2 (Colon), 20 micromolar, 72 hrs
Procedure, shortened: as §1

| Compound | Percent Inhibition [%] |
| --- | --- |
| COc1ccc2c(=O)c3c(O)cc(O)cc3oc2c1OC [Go-14] | 5 |

System: T47D
Test: Cell panel screen (CellTiter-Glo)
Assay type: cell-based, human
Details: T47D (Breast), 20 micromolar, 72 hrs
Procedure, shortened: as §1

| Compound | Percent Inhibition [%] |
| --- | --- |
| COc1ccc2c(=O)c3c(O)cc(O)cc3oc2c1OC [Go-14] | -3 |

System: CCF-STTG1
Test: Cell panel screen (CellTiter-Glo)
Assay type: cell-based, human
Details: CCF-STTG1 (Brain), 20 micromolar, 72 hrs
Procedure, shortened: as §1

| Compound | Percent Inhibition [%] |
| --- | --- |
| COc1ccc2c(=O)c3c(O)cc(O)cc3oc2c1OC [Go-14] | -1 |

System: RL95
Test: Cell panel screen (CellTiter-Glo)
Assay type: cell-based, human
Details: RL95 (Uterus), 20 micromolar, 72 hrs
Procedure, shortened: as §1

| Compound | Percent Inhibition [%] |
| --- | --- |
| COc1ccc2c(=O)c3c(O)cc(O)cc3oc2c1OC [Go-14] | -5 |

System: HCC1569
Test: Cell panel screen (CellTiter-Glo)
Assay type: cell-based, human
Details: HCC1569 (Breast), 20 micromolar, 72 hrs
Procedure, shortened: as §1

| Compound | Percent Inhibition [%] |
| --- | --- |
| COc1ccc2c(=O)c3c(O)cc(O)cc3oc2c1OC [Go-14] | 2 |

System: HT-1197
Test: Cell panel screen (CellTiter-Glo)
Assay type: cell-based, human
Details: HT-1197 (Urinary bladder), 20 micromolar, 72 hrs
Procedure, shortened: as §1

| Compound | Percent Inhibition [%] |
| --- | --- |
| COc1ccc2c(=O)c3c(O)cc(O)cc3oc2c1OC [Go-14] | -3 |

System: ZR-75-30
Test: Cell panel screen (CellTiter-Glo)
Assay type: cell-based, human
Details: ZR-75-30 (Breast), 20 micromolar, 72 hrs
Procedure, shortened: as §1

| Compound | Percent Inhibition [%] |
| --- | --- |
| COc1ccc2c(=O)c3c(O)cc(O)cc3oc2c1OC [Go-14] | -20 |

System: NCI-H1694
Test: Cell panel screen (CellTiter-Glo)
Assay type: cell-based, human
Details: NCI-H1694 (Lung), 20 micromolar, 72 hrs
Procedure, shortened: as §1

| Compound | Percent Inhibition [%] |
| --- | --- |
| COc1ccc2c(=O)c3c(O)cc(O)cc3oc2c1OC [Go-14] | -3 |

System: SW13
Test: Cell panel screen (CellTiter-Glo)
Assay type: cell-based, human
Details: SW13 (Adrenal gland), 20 micromolar, 72 hrs
Procedure, shortened: as §1

| Compound | Percent Inhibition [%] |
| --- | --- |
| COc1ccc2c(=O)c3c(O)cc(O)cc3oc2c1OC [Go-14] | -12 |

System: Panc 03.27
Test: Cell panel screen (CellTiter-Glo)
Assay type: cell-based, human
Details: Panc 03.27 (Pancreas), 20 micromolar, 72 hrs
Procedure, shortened: as §1

| Compound | Percent Inhibition [%] |
| --- | --- |
| COc1ccc2c(=O)c3c(O)cc(O)cc3oc2c1OC [Go-14] | 4 |

System: C8166
Test: Cell panel screen (CellTiter-Glo)
Assay type: cell-based, human
Details: C8166 (Leukemia), 20 micromolar, 72 hrs
Procedure, shortened: as §1

| Compound | Percent Inhibition [%] |
| --- | --- |
| COc1ccc2c(=O)c3c(O)cc(O)cc3oc2c1OC [Go-14] | 2 |

System: BT-474
Test: Cell panel screen (CellTiter-Glo)
Assay type: cell-based, human
Details: BT-474 (Breast), 20 micromolar, 72 hrs
Procedure, shortened: as §1

| Compound | Percent Inhibition [%] |
| --- | --- |
| COc1ccc2c(=O)c3c(O)cc(O)cc3oc2c1OC [Go-14] | -23 |

System: NCI-H1770
Test: Cell panel screen (CellTiter-Glo)
Assay type: cell-based, human
Details: NCI-H1770 (Lung), 20 micromolar, 72 hrs
Procedure, shortened: as §1

| Compound | Percent Inhibition [%] |
| --- | --- |
| COc1ccc2c(=O)c3c(O)cc(O)cc3oc2c1OC [Go-14] | -4 |

System: MSTO-211-H
Test: Cell panel screen (CellTiter-Glo)
Assay type: cell-based, human
Details: MSTO-211-H (Lung), 20 micromolar, 72 hrs
Procedure, shortened: as §1

| Compound | Percent Inhibition [%] |
| --- | --- |
| COc1ccc2c(=O)c3c(O)cc(O)cc3oc2c1OC [Go-14] | 11 |

System: Colo 205
Test: Cell panel screen (CellTiter-Glo)
Assay type: cell-based, human
Details: Colo 205, 20 micromolar, 72 hrs
Procedure, shortened: as §1

| Compound | Percent Inhibition [%] |
| --- | --- |
| COc1ccc2c(=O)c3c(O)cc(O)cc3oc2c1OC [Go-14] | 8 |

System: HEC-1-A
Test: Cell panel screen (CellTiter-Glo)
Assay type: cell-based, human
Details: HEC-1-A (Uterus), 20 micromolar, 72 hrs
Procedure, shortened: as §1

| Compound | Percent Inhibition [%] |
| --- | --- |
| COc1ccc2c(=O)c3c(O)cc(O)cc3oc2c1OC [Go-14] | -6 |

System: Bel-7402
Test: Cell panel screen (CellTiter-Glo)
Assay type: cell-based, human
Details: Bel-7402 (Liver), 20 micromolar, 72 hrs
Procedure, shortened: as §1

| Compound | Percent Inhibition [%] |
| --- | --- |
| COc1ccc2c(=O)c3c(O)cc(O)cc3oc2c1OC [Go-14] | -8 |

System: BT-549
Test: Cell panel screen (CellTiter-Glo)
Assay type: cell-based, human
Details: BT-549 (Breast), 20 micromolar, 72 hrs
Procedure, shortened: as §1

| Compound | Percent Inhibition [%] |
| --- | --- |
| COc1ccc2c(=O)c3c(O)cc(O)cc3oc2c1OC [Go-14] | -16 |

System: NCI-H524
Test: Cell panel screen (CellTiter-Glo)
Assay type: cell-based, human
Details: NCI-H524 (Lung), 20 micromolar, 72 hrs
Procedure, shortened: as §1

| Compound | Percent Inhibition [%] |
| --- | --- |
| COc1ccc2c(=O)c3c(O)cc(O)cc3oc2c1OC [Go-14] | -5 |

System: HGC-27
Test: Cell panel screen (CellTiter-Glo)
Assay type: cell-based, human
Details: HGC-27 (Stomach), 20 micromolar, 72 hrs
Procedure, shortened: as §1

| Compound | Percent Inhibition [%] |
| --- | --- |
| COc1ccc2c(=O)c3c(O)cc(O)cc3oc2c1OC [Go-14] | -2 |

System: ChaGo-K-1
Test: Cell panel screen (CellTiter-Glo)
Assay type: cell-based, human
Details: ChaGo-K-1 (Lung), 20 micromolar, 72 hrs
Procedure, shortened: as §1

| Compound | Percent Inhibition [%] |
| --- | --- |
| COc1ccc2c(=O)c3c(O)cc(O)cc3oc2c1OC [Go-14] | -16 |

System: TCCSUP
Test: Cell panel screen (CellTiter-Glo)
Assay type: cell-based, human
Details: TCCSUP (Urinary bladder), 20 micromolar, 72 hrs
Procedure, shortened: as §1

| Compound | Percent Inhibition [%] |
| --- | --- |
| COc1ccc2c(=O)c3c(O)cc(O)cc3oc2c1OC [Go-14] | 6 |

System: NCI-H28
Test: Cell panel screen (CellTiter-Glo)
Assay type: cell-based, human
Details: NCI-H28 (Lung), 20 micromolar, 72 hrs
Procedure, shortened: as §1

| Compound | Percent Inhibition [%] |
| --- | --- |
| COc1ccc2c(=O)c3c(O)cc(O)cc3oc2c1OC [Go-14] | -3 |

System: HCC1937
Test: Cell panel screen (CellTiter-Glo)
Assay type: cell-based, human
Details: HCC1937 (Breast), 20 micromolar, 72 hrs
Procedure, shortened: as §1

| Compound | Percent Inhibition [%] |
| --- | --- |
| COc1ccc2c(=O)c3c(O)cc(O)cc3oc2c1OC [Go-14] | 3 |

System: HCC1599
Test: Cell panel screen (CellTiter-Glo)
Assay type: cell-based, human
Details: HCC1599 (Breast), 20 micromolar, 72 hrs
Procedure, shortened: as §1

| Compound | Percent Inhibition [%] |
| --- | --- |
| COc1ccc2c(=O)c3c(O)cc(O)cc3oc2c1OC [Go-14] | 0 |

System: T98G
Test: Cell panel screen (CellTiter-Glo)
Assay type: cell-based, human
Details: T98G (Brain), 20 micromolar, 72 hrs
Procedure, shortened: as §1

| Compound | Percent Inhibition [%] |
| --- | --- |
| COc1ccc2c(=O)c3c(O)cc(O)cc3oc2c1OC [Go-14] | 8 |
